From patent publication US20210060060A1, “COMPOSITIONS AND METHODS FOR THE TREATMENT OF LUNG EMPHYSEMA AND OTHER FORMS OF COPD” (Emphysema Solutions BV, priority 2018, published 2021)
Like-named read-outs stand apart in the source and are kept apart here. One block for each molecule: values may come before it.

Experiments:
[1] = tested on: pulmonary rat fibroblasts
Description: (§1) Cell cultures with pulmonary rat fibroblasts. • 7.
(§2) We first measured copper levels in the fibroblast medium.

[2] = tested on: porcine pancreatic elastase (PPE)-induced emphysema; assay: Porcine pancreatic elastase (PPE)-induced emphysema model in mice
Procedure: Methods: In order to assess the effects of copper sulfate plus heparin on both elastin and collagen metabolism in vivo, we used a porcine pancreatic elastase (PPE)-induced emphysema model. Study was conducted in male BALB/c mice aged 7 weeks with a starting body weight of about 25 g. During the study period, all mice were housed in a conventional animal house with a 12/12 h light-dark cycle in filter-top cages and supplied with pelleted food and water ad libitum. 1.5 U porcine pancreatic elastase in 25 μL saline was intratracheally administered on day 1 under light anesthesia. […] On day 35, mice were anesthetized intraperitoneally with a mixture of xylazine (8.5 mg/kg) and ketamine (130 mg/kg), they were tracheotomized and placed in a whole-body plethysmograph to assess lung function. After lung function measurements, mice were euthanized by an intracardiac administration of pentobarbital. The left lung will be snap-frozen in liquid nitrogen and stored at −80° C. for subsequent gene expression studies where ELN, LOX and LOXL1 were measured. The right lung was fixed in 6% paraformaldehyde at a constant hydrostatic pressure of 25 cm fluid column for 24 h. After dehydration and embedding in paraffin, sagittal sections will be stained with various stains and used for histological analyses to measure airspace enlargement (mean linear intercept); and subsequently this lung was used for measuring concentrations of both DES and insoluble collagen. Brains were taken out to measure copper concentrations.

rats' lungs = conditions: copper repletion after copper-deficient diet, ref. [15]; cited from earlier work
copper-deficient chicks = conditions: copper repletion in copper-deficient chicks, ref. [7]; cited from earlier work
[3] = tested on: pulmonary rat fibroblasts; assay: Fibroblast cell cultures: vitamin K or magnesium sulfate on top of copper sulfate (6c); assay type: cell-based; conditions: added to copper sulfate (+8*initial copper concentration in medium); for accumulation of collagen: compared to copper sulfate monotherapy
Description: as §1, §2

[4] = fibroblasts grown 21 days, copper sulfate added +0.5 to +32*initial copper concentration in medium
[5] = intratracheal on day 1, 8, 15, 22 and 29, day 35, compared to placebo

Molecule: O=S(=O)([O-])[O-].[Cu+2] [copper sulfate]
copper concentration at which the dose response curve with regard to DES levels topped off ([1]; added on top of the baseline copper (+)): ~8 *initial copper concentration in the fibroblast medium | DES levels [1, 4]: increased | ELN gene expression [1, 4]: did not have any effect | LOX activity [1, 4]: increased | LOX gene expression [1, 4]: increased | LOXL1 gene expression [1, 4]: increased | accumulation of collagen in the lungs ([2]; conclusion of the mouse study): induced accumulation and maturation of collagen fibers | elastin repair process / repair of damaged elastin fibers ([2]; conclusion of the mouse study): very effectively stimulated | DES levels in lung tissue [2, 5]: higher | Mean linear intercept [2, 5]: lower | hydroxyproline levels in lung [2, 5]: elevated | hyperinflation in the lung function tests (total lung capacity) ([2]; intratracheal on day 1, 8, 15, 22 and 29, measured day 35, compared to placebo): More hyperinflation was present in the lung function tests of mice from the placebo group

Molecule: [Cu] [copper]
effect on cerebral copper concentrations ([2]; intratracheally administered, mice): no effect | ultrastructure of pulmonary elastin (rats' lungs): restored the ultrastructure of pulmonary elastin to near normal | deposition of protease-resistant elastin fibers (copper-deficient chicks): near normal values

Molecule: O=S(=O)([O-])[O-].[Mg+2] [magnesium sulfate]
DES accumulation [3]: additional stimulating effect | ELN gene expression [3]: no stimulating effect | LOX gene expression [3]: no stimulating effect | LOXL1 gene expression [3]: no stimulating effect | tropo-elastin levels [3]: no stimulating effect | accumulation of collagen [3]: no additional stimulating effect

Molecule: CC1=C(C/C=C(\C)CCC[C@H](C)CCC[C@H](C)CCCC(C)C)C(=O)c2ccccc2C1=O [vitamin K1]
DES accumulation [3]: additional stimulating effect | ELN gene expression [3]: no stimulating effect | LOX gene expression [3]: no stimulating effect | LOXL1 gene expression [3]: no stimulating effect | insoluble elastin levels [3]: additional stimulating effect | tropo-elastin levels [3]: no stimulating effect | accumulation of collagen [3]: no additional stimulating effect

Molecule: CC(C)=CCC/C(C)=C/CC/C(C)=C/CC/C(C)=C/CC1=C(C)C(=O)c2ccccc2C1=O [vitamin K2]
DES accumulation [3]: additional stimulating effect | ELN gene expression [3]: no stimulating effect | LOX gene expression [3]: no stimulating effect | LOXL1 gene expression [3]: no stimulating effect | insoluble elastin levels [3]: additional stimulating effect | tropo-elastin levels [3]: no stimulating effect | accumulation of collagen [3]: no additional stimulating effect

effect on systemic coagulation ([2]; mouse, in vivo): did not have any effect
Molecule: heparin
